Measured values from ChEMBL document CHEMBL1201862, “PubChem BioAssay data set” (2004).
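Five concentrations, 48 hours, 96-well plates. Here, GI50 denotes the concentration required for 50% inhibition of growth.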 The source made the active and inactive calls. No stated cut-off is given here; in the data, active = GI50 up to about 1.1 µM and inactive = higher.

Columns and labels:
Experiment in all cases: NCI anticancer screen, dose series, 48 h
786-0 = system: 786-0
A498 = system: A498
A549 = system: A549
ACHN = system: ACHN
BT-549 = system: BT-549
CAKI-1 = system: CAKI-1
CCRF-CEM = system: CCRF-CEM
COLO 205 = system: COLO 205
DU-145 = system: DU-145
EKVX = system: EKVX
HCC 2998 = system: HCC 2998
HCT-116 = system: HCT-116
HCT-15 = system: HCT-15
HL-60 = system: HL-60
HOP-62 = system: HOP-62
HOP-92 = system: HOP-92
HT-29 = system: HT-29
Hs-578T = system: Hs-578T
IGROV-1 = system: IGROV-1
K562 = system: K562
KM12 = system: KM12
LOX IMVI = system: LOX IMVI
M14 = system: M14
MCF7 = system: MCF7
MDA-MB-231 = system: MDA-MB-231
MDA-MB-435 = system: MDA-MB-435
MOLT-4 = system: MOLT-4
NCI-H226 = system: NCI-H226
NCI-H23 = system: NCI-H23
NCI-H460 = system: NCI-H460
NCI-H522 = system: NCI-H522
NCI/ADR-RES = system: NCI/ADR-RES
OVCAR-3 = system: OVCAR-3
OVCAR-4 = system: OVCAR-4
OVCAR-5 = system: OVCAR-5
OVCAR-8 = system: OVCAR-8
PC-3 = system: PC-3
RPMI-8226 = system: RPMI-8226
RXF 393 = system: RXF 393
SF-268 = system: SF-268
SF-295 = system: SF-295
SF-539 = system: SF-539
SK-MEL-28 = system: SK-MEL-28
SK-MEL-2 = system: SK-MEL-2
SK-MEL-5 = system: SK-MEL-5
SK-OV-3 = system: SK-OV-3
SN12C = system: SN12C
SNB-19 = system: SNB-19
SNB-75 = system: SNB-75
SR = system: SR
SW-620 = system: SW-620
T47D = system: T47D
TK-10 = system: TK-10
U-251 = system: U-251
UACC-257 = system: UACC-257
UACC-62 = system: UACC-62
UO-31 = system: UO-31
Malme-3M = system: Malme-3M

Measured: GI50

CC1=NN(c2nc(N)nc(CN3CCOCC3)n2)C(C)(C)C1
inactive: 786-0 15.2 µM | A498 > 100 µM | A549 > 100 µM | ACHN 31.8 µM | BT-549 > 100 µM | CAKI-1 20.2 µM | CCRF-CEM 30.1 µM | COLO 205 60.4 µM | DU-145 > 100 µM | EKVX 31.8 µM | HCC 2998 > 100 µM | HCT-116 > 100 µM | HL-60 15.2 µM | HOP-62 46.2 µM | HOP-92 33.2 µM | HT-29 > 100 µM | Hs-578T > 100 µM | IGROV-1 16.9 µM | K562 > 100 µM | KM12 > 100 µM | LOX IMVI 14.9 µM | M14 > 100 µM | MCF7 > 100 µM | MDA-MB-231 > 100 µM | MDA-MB-435 > 100 µM | MOLT-4 > 100 µM | NCI-H226 > 100 µM | NCI-H23 > 100 µM | NCI-H460 > 100 µM | NCI-H522 14 µM | NCI/ADR-RES > 100 µM | OVCAR-3 > 100 µM | OVCAR-4 20.5 µM | OVCAR-5 > 100 µM | OVCAR-8 > 100 µM | PC-3 > 100 µM | RPMI-8226 > 100 µM | RXF 393 > 100 µM | SF-268 > 100 µM | SF-295 > 100 µM | SF-539 > 100 µM | SK-MEL-28 > 100 µM | SK-MEL-2 > 100 µM | SK-MEL-5 73.3 µM | SK-OV-3 > 100 µM | SN12C > 100 µM | SNB-19 > 100 µM | SNB-75 > 100 µM | SR 30.1 µM | SW-620 > 100 µM | T47D > 100 µM | TK-10 > 100 µM | U-251 > 100 µM | UACC-257 > 100 µM | UACC-62 26.5 µM | UO-31 18.1 µM
> 100 µM: HCT-15

COc1cccc(Nc2nc(-c3cccs3)nc3ccc(Br)cc23)c1
inactive: 786-0 33.3 µM | A498 > 100 µM | A549 76.4 µM | ACHN > 100 µM | BT-549 > 100 µM | CAKI-1 33.7 µM | COLO 205 > 100 µM | DU-145 > 100 µM | EKVX > 100 µM | HCT-116 50.5 µM | HL-60 > 100 µM | HOP-62 20 µM | HOP-92 31.4 µM | HT-29 > 100 µM | Hs-578T > 100 µM | IGROV-1 > 100 µM | K562 > 100 µM | KM12 74 µM | LOX IMVI > 100 µM | M14 > 100 µM | MCF7 12.7 µM | MDA-MB-231 37.8 µM | MDA-MB-435 76 µM | Malme-3M 72.9 µM | NCI-H226 78 µM | NCI-H23 46 µM | NCI-H460 25.6 µM | NCI-H522 > 100 µM | NCI/ADR-RES 40.5 µM | OVCAR-3 36.6 µM | OVCAR-5 95.3 µM | OVCAR-8 39.2 µM | PC-3 27.4 µM | RPMI-8226 1.67 µM | SF-268 41.8 µM | SF-295 36.6 µM | SF-539 94.2 µM | SK-MEL-2 > 100 µM | SK-MEL-5 55.5 µM | SK-OV-3 70 µM | SN12C > 100 µM | SNB-19 25.5 µM | SR 1.48 µM | SW-620 > 100 µM | T47D > 100 µM | TK-10 36.7 µM | U-251 35.5 µM | UACC-257 > 100 µM | UACC-62 66.2 µM | UO-31 > 100 µM
active: CCRF-CEM 0.0101 µM
> 100 µM: HCT-15
